# Assay results published in patent US8217014B2, “Pharmaceutical composition for treatment of blood clotting disorder” (National University Corporation Nagoya University, priority 2006, dated 2012).
# Values joined by “and” are separate entries in the source; they are usually repeats but may differ in a detail not shown here. Equal entries are not always repeated.
# Tests used:
# HCV = test: Eradication of HCV in HCV-positive patients with hemophilia; format: in vivo, human
# Method: (§1) Ribavirin was orally administered, while the interferon was intravenously administered.
# (§2) Interferon α-2b alone was administered to the patients Nos. 1, 2, 3, and 5, prior to the combined administration of this Example 1. In the interferon single dosing period, the interferon was administered to the patients Nos. 1, 2, 3, and 5 every day with the dosage of 6 MU (million units) per day for the first 2 weeks and 3 times per week for the subsequent 22 weeks. […] In the combined administration of this Example 1, Intron A was administered to all the patients every day with the dosage of 6 MU per day for the first 2 weeks and 3 times per week for the subsequent 22 weeks.
# The HCV-RNA level was measured at the start of treatment with Amplicor HCV Assay, version 2.0 (Roche Diagnostic Systems).
# Eradication of HCV was considered positive when the absence of serum HCVRNA was maintained for 24 weeks after the treatment was completed.
# [1] = test system: HCV-positive patients with hemophilia; test: Bleeding requiring treatment and use of clotting factors in hemophilia patients (patient logs); format: in vivo, human; settings: 47 hemophilia patients with hepatitis C
# [2] = test system: HCV-positive patients with hemophilia; test: as above; format: in vivo, human
# Method: as §1, §2
# The use of clotting factors was assessed by patient logs. The clotting factors are generally not used for patients with mild hemophilia. The doses (mean value) of the clotting factors before the combined dosing period of this Example 1, during the combined dosing period, and after the combined dosing period were evaluated. A significant difference at P<0.05 was evaluated by (paired) t-test. Ability to perform activities of daily living was assessed by interview.
# coagulation factor X = test: Coagulation activity of coagulation factor X in the plasma; format: in vivo, human; settings: before and after the start of the combined dosing, data not shown
# [3] = test system: coagulation factor VII mRNA in hepatic parenchymal cell line; test: mRNA expression of coagulation factor VII, real-time quantitative RT-PCR, normal hepatic parenchymal cell line; format: cell-based; settings: ribavirin 150 μg/ml in the presence of interferon α-2b 0.75 μg/ml, 48 hours, p<0.01
# Method: (§3) The mRNA expression levels of the coagulation factors VII and X and prothrombin were measured according to the protocols of real-time quantitative RT-PCR with ABI Prism 7700 Sequence Detection (Perkin Elmer Biosystems, Foster City, Calif., USA) and SYBR Green PCR kit (Perkin Elmer Biosystems). The real-time quantitative RT-PCR was repeated twice. The following […] were used for determination of the mRNA of the genes.
# [4] = test system: coagulation factor VII mRNA in HepG2 cell line; test: mRNA expression of coagulation factor VII, real-time quantitative RT-PCR, HepG2 cell line; format: cell-based, human; settings: ribavirin 150 μg/ml in the presence of interferon α-2b 0.75 μg/ml, 48 hours, p<0.02
# Method: as §3
# [5] = test system: coagulation factor X mRNA; test: mRNA expression of coagulation factor X, real-time quantitative RT-PCR, hepatic cell lines; format: cell-based; settings: ribavirin 150 μg/ml in the presence of interferon α-2b 0.75 μg/ml; data not shown
# Method: as §3
# prothrombin mRNA = test: mRNA expression of prothrombin, real-time quantitative RT-PCR, hepatic cell lines; format: cell-based; settings: ribavirin 150 μg/ml in the presence of interferon α-2b 0.75 μg/ml; data not shown
# Method: as §3
# [6] = test system: prothrombin time (PT) in the plasma; test: Prothrombin time (PT) in the plasma of chronic hepatitis C patients with or without hemophilia; format: in vivo, human; settings: for PT Increase Rate: 12 weeks after start versus before; for PT After Therapy: 12 weeks after start
# Method: Of these patients, 9 patients were with hemophilia and 27 hepatitis patients were without hemophilia. Pegintron was administered to all the patients once a week with the dosage of 1.5 μg/Kg for 48 weeks, whereas Rebetol was simultaneously administered to the 9 hemophilia patients with the dosage of Administration Example 1 (600 mg to 800 mg per day).
# The prothrombin time (PT) in the plasma was measured for the patients before the start of the dosing and 12 weeks after the start of the dosing, for the purpose of evaluation of the coagulation activity.
# coagulation factor VII = test: Coagulation activity of coagulation factor VII in the plasma of hemophilia patients
# [7] = 4 weeks after start of combined dosing, 9 patients
molecule,measurement,setting,value
interferon α-2b,Elimination of HCV in interferon single dosing period,"HCV; interferon α-2b alone, 6 MU per day for 2 weeks then 3 times per week for 22 weeks, patients Nos. 1, 2, 3, 5",not eliminated
same,reduction of the bleeding tendency by single interferon dosing,[1],No such reduction
"NC(=O)c1ncn([C@@H]2O[C@H](CO)[C@@H](O)[C@H]2O)n1 [ribavirin, 1-β-D-ribofuranosyl-1,2,4-triazole-3-carboxamide]",Eradication of HCV,"HCV; oral ribavirin 600-800 mg/day combined with interferon α-2b (Intron A) for 24 weeks, YES = absence of serum HCV-RNA maintained 24 weeks after treatment, per patient (Nos. 1-8)",YES
same,monthly mean dosage of the clotting factors in the combined dosing period,"[2]; 5 patients with moderate or severe hemophilia, ribavirin + interferon α-2b, standard deviation 1488, 3783 U (SD 2646) in the 6 months before, P<0.03",1605 U
same,monthly mean dosage of the clotting factors in the 6-month period after the combined dosing period,"[2]; 5 patients with moderate or severe hemophilia, standard deviation 1528, 3783 U (SD 2646) in the 6 months before, P<0.06",1667 U
same,"Times of Bleeding Requiring Treatment, After Therapy","[2]; monthly mean bleeding frequency treated with clotting factors, after the combined dosing period of ribavirin and interferon α-2b, patient (Nos. 1, 2, 3, 5, 8)",0.7 and 0.0 and 1.6 and 4.1 and 2.2
same,"Times of Bleeding Requiring Treatment, During Therapy","[2]; monthly mean bleeding frequency treated with clotting factors, combined dosing period of ribavirin and interferon α-2b, patient (Nos. 1, 2, 3, 5, 8)",0.2 and 0.8 and 0.7 and 3.0 and 2.6
same,bleeding tendency in the combined dosing period compared with the interferon single dosing period,"[2]; patients Nos. 1, 2, 3 and 5, ribavirin + interferon α-2b",significantly reduced
same,change in coagulation activity of the coagulation factor X,coagulation factor X,No significant change
same,mRNA induction of the coagulation factor VII,[3],about 4 times
same,mRNA induction of the coagulation factor VII,[4],about 3 times
same,mRNA induction of the coagulation factor X,[5],No significant induction
same,mRNA induction of prothrombin,prothrombin mRNA,No significant induction
same,PT Increase Rate,[6]; Hemophilia Group n = 9,9.4 ± 8.4%
same,PT After Therapy,"[6]; Hemophilia Group n = 9, Rebetol 600-800 mg/day + Pegintron 1.5 μg/Kg once a week, before therapy 90.0 ± 12.2%",99.4 ± 14.3%
same,PT Increase Rate,[6]; Non-Hemophilia Group n = 27,5.4 ± 12.6%
same,PT After Therapy,"[6]; Non-Hemophilia Group n = 27, Pegintron 1.5 μg/Kg once a week, combined administration, before therapy 94.9 ± 14.4%",100.0 ± 16.8%
same,Factor VII coagulation activity increase in the 2 patients without significant increase,"coagulation factor VII; 2 of the 9 patients (one HIV positive, one hepatitis C and hepatitis B virus positive)",5% and 8%
same,"Factor VII coagulation activity increase, maximum",coagulation factor VII; [7],28%
same,"Factor VII coagulation activity increase, minimum",coagulation factor VII; [7],5%
same,Factor VII Clotting Activity Increase Rate,"coagulation factor VII; 4 weeks after start versus before start of combined dosing, 9 hemophilia patients, p<0.04",15.7 ± 8.8%
same,Factor VII Clotting Activity After Start of Therapy,"coagulation factor VII; plasma, 4 weeks after start of combined dosing (ribavirin 600-800 mg/day + interferon α-2b), 9 hemophilia patients, before start 86.3 ± 7.6%",102.0 ± 10.3%
